Results published in a melting point compilation (Tetko et al.; mined from patent text by program, amines drawn as free bases though some values may be those of a salt).

| SMILES | melting point |
| --- | --- |
| CCCCCCCCC(SCCCCCC)C(=O)Nc1c(SC)cc(NC(C)=O)c2ncc(C)cc12 (stereo not drawn) | 128 to 131 °C |
| CCN(CC)CCOc1cccc2c1c1cc(F)ccc1n2Cc1ccc(F)cc1 | 75 to 76 °C |
| COC(=O)c1ncnn1C1OC(COC(=O)c2ccccc2)C(OC(=O)c2ccccc2)C1OC(=O)c1ccccc1 (stereo not drawn) | 122 to 124 °C |
| COc1ccc(CCc2c(Cl)cncc2Cl)c2c1OC(C)(C)C2 | 128 to 133 °C |
| COc1cc(Nc2c(C#N)cnc3cc4cc(OCCN5CCOCC5)c(OC)cc4cc23)c(Cl)cc1C | 220 to 222 °C |
| CCCCCCCCCCCCCCCCCCNC(=O)OC(=O)CCCCCCCCCCC | 83 °C |
| Cc1nc(C(O)CNC(C)(C)C)ccc1OCc1ccccc1 (stereo not drawn) | 96 to 97 °C |
| N[C@H](Cc1ccc(C(F)(F)F)cc1)[C@@H](O)c1cccc(Cl)n1 (racemic) | 89 to 90 °C |
| Cc1ccccc1Nc1nc(NCc2ccccc2)nc2ccccc12 | 127 to 130 °C |
| CCC(=O)N1N=C(c2ccc(N)cc2)c2cc(Br)ccc2CC1C (stereo not drawn) | 99 to 102 °C |
| Cc1cc(C)c([C@H](O)[C@@H](C#N)c2ccccc2)c(C)c1 (racemic) | 132 °C |
| Cc1cc(-c2cnn3c(C(F)(F)F)cc(-c4ccc(Br)cc4)nc23)cc(C)n1 | 258 °C |
| COc1ccc(CN(C)CCCSc2ccc(NC(=O)c3cccc4c(=O)c5ccccc5sc34)cc2)cc1OC | 148 °C |
| C=CCN1C2CCC3C1CCC2N3C(c1ccc(C(=O)N2CCCC2)cc1)c1cccc(OC)c1 (stereo not drawn) | 126 to 128 °C |
| Cn1cc([N+](=O)[O-])nc1C=O | 129 °C |
| Cc1cc(C(O)(c2ccc3c(cnn3-c3ccc(F)cc3)c2)C(F)(F)F)cn(C)c1=O (stereo not drawn) | > 200 °C |
| CCN(CC)c1ccc2nc(C)c(C#N)c(O)c2c1 | > 250 °C |
| Cc1nc(-n2ccc(OCc3ccc(C(F)(F)F)cc3)cc2=O)sc1C(=O)NCc1ccccc1 | 278 to 280 °C |
| COc1cc2c(cc1F)C(c1ccccc1Cl)=NC1=CNNC1=N2 | 242 to 243 °C |

| SMILES | melting point |
| --- | --- |
| COc1ccccc1-n1c(=O)[nH]c2c(C(N)=O)nc(-c3cccc(C#N)c3)nc21 | 316 to 318 °C |
| CCN(CC)CCOc1cc(C(=O)NC(=N)N)c(C)c2ccc(OC)cc12 | 135 °C |
| CCCCCCCCCCCCCCCCCCOc1ccc(N(CC(=O)O)C(=O)OC(C)(C)C)cc1 | 89 to 92.5 °C |
| N#Cc1cnn(-c2ccc(Cl)c(Cl)c2Cl)c1N | 154 to 156 °C |
| CCc1cc2c(=O)n3cc(C#N)ccc3nc2s1 | 223 to 224 °C |
| CC1(C)[C@@H]2CC3[C@H](C(N)=O)[C@@]3(C)C[C@@H]21 (stereo partly drawn) | 122 °C |
| NCC1Cc2cc(Cl)cc(-c3ccoc3)c2O1 (stereo not drawn) | > 250 °C |
| CCOC(=O)c1c[nH]c2nc(SCC)c(F)cc2c1=O | 280 to 284 °C |
| O=CNc1cccc(-c2ccnc3c(C(=O)c4cccs4)cnn23)c1 | 233 to 236 °C |
| Cc1cc(NS(=O)(=O)c2ccc(NCNc3ccc(S(=O)(=O)Nc4cc(C)on4)cc3)cc2)no1 | 180 to 188 °C |
| CC(C)(C)NCCOP1Oc2c(cc(C(C)(C)C)cc2C(C)(C)C)Cc2cc(C(C)(C)C)cc(C(C)(C)C)c2O1 | 189 to 192 °C |
| CC(C)C(=O)O[C@H]1[C@H](C)OC(=O)[C@@H](NC(=O)OC(C)(C)C)COC(=O)[C@@H]1CC(=O)O | 164 to 167 °C |
| NS(=O)(=O)c1ccc(NN=Cc2ccc(F)cc2)cc1 | 205 to 206 °C |
| Cc1nc2ccccc2c2c1OCCN2 | 203 to 204 °C |
| CCNc1ccc(F)c(-c2cccnc2)c1F | 79 to 80 °C |
| CS(=O)c1c(C(=N)NO)nn(-c2c(Cl)cc(C(F)(F)F)cc2Cl)c1N (stereo not drawn) | 225 to 226 °C |
| CCCCCCCCCC1COC(c2ccc(CCCCCCC)c(F)c2F)OC1 (stereo not drawn) | 40.4 °C |
| O=c1[nH]cc(-c2cnccn2)cc1Br | > 250 °C |

Results, then the compound that gave them:

| melting point | SMILES |
| --- | --- |
| 237 to 240 °C | Clc1ccc(Nc2nc3ccccc3c3[nH]c(C4CCCCC4)nc23)cc1Cl |
| 216 °C | COc1ccc(C(=O)Nc2ccccc2)cc1NS(=O)(=O)Cc1ccccc1 |
| 246 to 248 °C | Cc1cc(C)c(Nc2nc(C)ncc2S(=O)(=O)c2ccc(O)cc2)c(C)c1 |
| 198 to 200 °C | CCCOc1ccc(S(=O)(=O)N2CCN(Cc3ccccc3)CC2)cc1-c1nc2cc(Cl)c([N+](=O)[O-])cc2c(=O)[nH]1 |
| 126 to 129 °C | CC(=O)Oc1cc(C(C)C)c(NC(=O)CN2CCN(CCSc3nc4ccccc4o3)CC2)c(C(C)C)c1 |
| 216 to 217 °C | CC1(C)COP(=O)(O)OC1c1cccc2ccccc12 (stereo not drawn) |
| 137 to 138 °C | CCC(NC(C)=O)c1ccc(CN2CCN(c3ccc(F)cc3F)CC2)cc1 (stereo not drawn) |
| 198 to 199 °C | COc1ccc(C2=NN(C3CCN(S(=O)(=O)c4ccccc4F)CC3)C(=O)CC2)cc1OC |
| 301 to 302 °C | O=C(O)c1ccc(-c2ncc(-c3ccc(F)cc3F)o2)cc1 |
| 166 to 167 °C | Cc1nc(C(=O)NCCN2CCOCC2)cc(-c2cccc([N+](=O)[O-])c2)c1C(C)O (stereo not drawn) |
| 175 °C | O=C(O)Cc1c(-c2ccccc2)c(=O)[nH]c2cc(Cl)ccc12 |
| 133 to 134 °C | O=C(CNC(=O)c1ccc(Cl)c(Cl)c1)c1ccoc1 |
| 236 °C | CCc1cc(C(=O)Nc2cc(Oc3ccc4nc(NC(=O)C5CC5)cn4n3)ccc2F)n(C)n1 |
| 132 to 136 °C | Cc1ccc(Cl)c(C(=O)c2ccc(Cl)cc2)c1Cl |
| 154 to 156 °C | C/C=C/CONC(=O)c1nc(-c2ccc(Cl)c(OC)c2F)cc(N)c1Cl |
| 144 to 146 °C | CCOC12CC(C)(C)C(O1)C(OC(=O)c1ccc([N+](=O)[O-])cc1)C=C2C (stereo not drawn) |

| melting point | SMILES |
| --- | --- |
| 156 to 157 °C | O=c1nc(-c2cccc(CN3CCN(c4ccc(F)cc4)CC3)n2)sc2ccccc12 |
| 167 to 168 °C | O=C(OCC(O)CO)c1cc(F)ccc1Nc1ccnc2cc(C(F)(F)F)ccc12 (stereo not drawn) |
| 226 to 229 °C | CC1(C)Oc2ccc(C#N)cc2[C@@H](N2CCN(C(=O)c3ccco3)CC2=O)[C@@H]1O (relative stereo) |
| 67 to 69 °C | CCOC(=O)C1CCc2c(c3ccccc3n2C(=O)c2ccccc2)C1 (stereo not drawn) |
| 117 to 118 °C | C=Cc1nnc2ccc3ccccc3n12 |
| > 250 °C | CC(C)(O)Cn1cnc2c(N)nc3cc(Br)ccc3c21 |
| 71 to 72 °C | CN(C)c1cccc(Oc2cccc(Cl)n2)c1 |
| 242 to 244 °C | Cc1ccc(C)c(Nc2ncc(C(=O)O)c(=O)[nH]2)c1 |
| 278 to 281 °C | O=C(O)c1cn(C2CC2)c2cc(-c3ccncc3)ccc2c1=O |
| 150 to 152 °C | COc1ccc(C(O)CN2c3nc(-c4ccncc4)cc(=O)n3CCC2c2ccccc2)cc1 (stereo not drawn) |
| 128 to 130 °C | O=C(Nc1ccc(Br)cn1)C(CC1CCCC1)c1ccc(Cl)c([N+](=O)[O-])c1 (stereo not drawn) |
| 97 to 100 °C | CCc1cc(Oc2ccc([N+](=O)[O-])cc2C(F)(F)F)nn1C(=O)NC |
| 234 °C | CCOC(=O)c1cnn(C)c1C(=O)Nc1ccc2nc(N3CCOCC3)nn2c1 |
| 153 °C | COCCOc1ccc(CN(C(=O)C2CCCc3c(O)cccc32)c2ccc(C(C)C)cc2)cn1 (stereo not drawn) |
| 197 to 198 °C | CC(=O)N(C)c1ccc(-c2cc3ccc(Br)cn3c2)cc1C |
